{
  "source": "patent US20120214834A1",
  "about": "“IMMUNE ENHANCEMENT COMPOSITION AND KIT AND USE THEREOF” (priority 2011, published 2012)",
  "test_system": "Human erythromyeloblastoid leukemia cell line K562 (target cells of NK cells)",
  "assay": "Activity of NK cells against pre-treated K562 target cells, by flow cytometer (PKH67-GL / PI)",
  "format": "cell-based",
  "conditions": "K562 target cells treated with 10 nM rapamycin alone for 48 hours; effector:target 25:1, 16 hours co-culture",
  "protocol": "Select Human erythromyeloblastoid leukemia cell line K562 as target cells and culture it by tissue culture technique in RPMI 1640 supplemented with 10% FBS to a proper amount. And then, take a suspension containing 1×10^6 cells and inoculate it in a 6-wells plate. […] And then, put the plate into a 37° C. incubator to continue culturing for 48 hours.\nUse 1 mM of green fluorescent cell linker dye PKH67-GL(Sigma-Aldrich), which resolves in alcohol, to label the aforementioned cells. The detail steps are: resuspend 1×10^6 cells in 1 ml of Diluent C(Sigma-Aldrich), add PKH67-GL until the density reaches 4×10^−6 M and dye for 4 minutes under 25 °C. Add 1 ml FBS and 2 ml complete medium to end the coloring reaction, then wash it with PBS for three times. And then, dilute the amount of cells in a complete medium until it reaches 2.5×10^5 cells per ml and confirm the labeling and activity of cells by a Flow cytometer.\nDilute the amount of NK cells (the effector cell of the present Experimental Example) to 6.25×10^6 per ml. Mix 100 μl of the aforementioned diluted cell solution with 100 μl of the target cell solution so that the ratio of effector cells and target cells reaches 25:1. Put the mixed cells in a cell culture and culture for 16 hours in a 37□ incubator with 5% CO2. […]",
  "data": [
    {"smiles": "CO[C@H]1C[C@@H]2CC[C@@H](C)[C@@](O)(O2)C(=O)C(=O)N2CCCC[C@H]2C(=O)O[C@H]([C@H](C)C[C@@H]2CC[C@@H](O)[C@H](OC)C2)CC(=O)[C@H](C)/C=C(\\C)[C@@H](O)[C@@H](OC)C(=O)[C@H](C)C[C@H](C)/C=C/C=C/C=C/1C", "note": "[rapamycin]", "values": [
      {"measurement": "activity ratio of NK cells, increase over Control", "result": 15, "unit": "%"}
    ]}
  ]
}
